Measured values: patent US6706509B2, “Oncoprotein protein kinase” (The Regents of the University of California, priority 1993, dated 2004)

Columns and labels:
Ha-Ras = assay: GTP content of Ha-Ras in 32P-labelled Jurkat cells; type: cell-based, human; details: for Ha-Ras activation measured by increase in GTP content, agent alone: 10 ng/ml TPA, 1 μg/ml anti-CD3 or 2 μg/ml anti-CD28, 2 minutes
Experimental: Jurkat cells 10×10^6 were labelled for 3 hours with ^32P-orthophosphate (ICN Radiochemicals) at 1 mCi/ml in 5 mM of Na3VO4 phosphate-free DMEM supplemented with 1 mg/ml BSA. Before harvest, cells were stimulated with TPA, 10 ng/ml, A23187, 1 μg/ml anti-CD3 antibody (OKT3), 10 μg/ml, anti-CD28 antibody, 2 μg/ml or their combinations. After treatment for a specified period, cells were washed once immediately with ice cold PBS, twice with ice-cold Tris-Buffered saline (50 mM Tris-HCl, pH 7.5, 20 mM MgCl2, 150 mM NaCl, […] Nonidet P-40/1 μg/ml of aprotinin, leupeptin, pepstatin and 1 mM phenylmethyl sulfonylfluoride). Ras p21 was immunoprecipitated with monoclonal antibody […] (Santa Cruz Biotechnology, Inc., Santa Cruz, Calif.). The GDP/GTP content of Ras was analyzed by TLC as described (Satoh, et al., Proc. Natl. Acad. Sci., USA, 15:5993, 1990) and quantitated with an Ambis radioanalytic image system (Ambis, San Diego, Calif.).
Jurkat cells (2×10^6 cells per point) labeled with 0.4 mCi of ^32P-orthophosphate for 3 hours were incubated with nonspecific antibody (1 μg/ml mouse IgG; control), 1 μg/ml anti-CD3, 2 μg/ml anti-CD28, 10 ng/ml TPA or 500 ng/ml A23187 (A), as indicated. After 2 minutes, the cells were harvested, lysed and Ha-Ras was isolated by immunoprecipitation. The guanine nucleotide bound to Ha-Ras were extracted, separated by thin layer chromatography and quantitiated as described in EXAMPLE 9. The values shown represent the averages of two separate experiments done in duplicates. Jurkat cells were labeled with ^32P-orthophosphate and stimulated with either TPA or anti-CD3 as described above. At the indicated time points, the cells were harvested and the GTP content of Ha-Ras was determined as described directly above.

[1] = system: AP-1 responsive human collagenase promoter (-73Col-LUC); assay: AP-1 transcriptional activity, -73Col-LUC luciferase reporter in Jurkat cells; type: cell-based; details: for -73Col-LUC luciferase activity, two costimuli together: TPA+A23187 or anti-CD3+anti-CD28; for -73Col-LUC luciferase activity, agent administered alone: TPA 50 ng/ml or A23187 1 μg/ml, 9 hours
Experimental: T Ag Jurkat cells, a derivative of the human Jurkat T-cell line stably transfected with the SV40 large T antigen (a gift from Dr. G. Crabtree) were grown to 10^6/ml, then resuspended at 2×10^7/ml in fresh complete medium. 10^7 cells (0.5 ml) were mixed with reporter plasmids (5 μg, −79 jun-LUC; 10 μg, −73/+63 Col-LUC or −60/+63 Col-LUC; 5 μg IL2-LUC) at room temperature for 10 minutes, then electroporated at 250 V, 960 uF in a 0.4 cm cuvette using a Bio-Rad GenePulser. After electroporation, cells were immediately put on ice for 10 minutes, then resuspended in 10 ml complete medium for 24 hours before stimulation. 0.5 μg of pSRaIIc-Jun were used to transfect 10^7 Jurkat cells. Luciferase activity was determined as described (Deng and Karin, supra., 1993).
The effects of the different stimuli on AP-1 transcriptional activity in Jurkat cells were examined using a truncated, AP-1 responsive, human collagenase promoter (Angel, et al., Cell, 49:729-739, 1987) fused to the luciferase (LUC) reporter gene. Jurkat cells were transfected with 10 μg of either −73Col-LUC or −60Col-LUC reporter plasmids. 24 hours after transfection, the cells were aliquoted into 24 well plates and incubated for 9 hours with 50 ng/ml TPA, 1 μg/ml A23187 or 100 ng/ml CsA, either alone or in combinations, as indicated. The cells were harvested and luciferase activity was determined. The results shown are averages of three experiments done in triplicates.

JNK = assay: Solid-state phosphorylation assay of JNK in FR3T3, CV-1 and PC12 cells; type: cell-based; details: for JNK activity, effect of A23187 or CsA treatment: FR3T3, CV-1 and PC12 cells, A23187 1 μg/ml, CsA 100 ng/ml
Experimental: We examined whether elevated intracellular Ca^++ affects JNK activation in other cells. […] Cultures of FR3T3, CV-1, PC12 and mouse thymocytes were incubated for 15 minutes in the presence of TPA (50 ng/ml, T), A23817 (1 μg/ml, A) and/or CsA (100 ng/ml), as indicated. WCE prepared from 2-4×10^5 cells for the established cell lines and 1.5×10^6 cells for primary thymocytes were incubated with GSTcJun(1-223)-GSH agarose beads. After washing, JNK activity was determined by solid-state phosphorylation assay as described above.

jun-B = assay: Northern blot of jun-B expression in Jurkat cells; type: cell-based, human; details: 40 minutes; for effect on jun-B induction by TPA: A23187 1 μg/ml or CsA 100 ng/ml
Experimental: Exponentially growing Jurkat cells (10^6/ml) grown in complete RPMI medium was pretreated with CsA for 15 minutes when applicable, then subjected to various treatments for another 40 minutes. Total cytoplasmic RNA was extracted as previously described (Angel, et al., Cell, 49:729-739, 1987). 10 μg RNA was denatured by incubating with glyoxal for 60 minutes at 55° C. and fractionated on a 1% agarose gel in phosphate buffer. The fractionated RNA was blotted to Zetabind Nylon membrane (CUNO Labs) and hybridized to ^32P-labelled cDNA probes specific for c-jun, jun-B, jun-D, c-fos, α-tubulin and IL-2.
During the first stage of T lymphocyte activation, early response genes are rapidly included (Crabtree, Science, 243:355,361, 1989; Zipfel, et al., Mol Cell Bio., 9:1041-1048, 1989). Induction of jun and fos genes during activation of the Jurkat T cell line was investigated. Two different co-stimulatory paradigms were used, one employing TPA and the Ca^2+ ionophore A23187, and the second based on simultaneous stimulation of the TCR complex with an antibody to its CD3 component (OKT3; Van Wauwe, et al., J. Immunol., 124:2708-2713, 1980) and stimulation of the CD28 auxiliary receptor with an anti-CD28 antibody (9.3; Hansen, et al., Immunogenetics, 10:247-260, 1993; June, et al., Immunol. Today, 11:211-216, 1990). Total cytoplasmic RNA was extracted from Jurkat cells that were incubated with 50 ng/ml TPA (T), 1 μg/ml A23187 (A) or 100 ng/ml cyclosporin A (CsA) for 40 minutes, either alone or in combinations, as indicated. After fractionation of 10 μg samples on an agarose gel and transfer to nylon membrane, the level of c-jun, jun-B, jun-D, c-fos and α-tubulin expression was determined by hybridization to random primed cDNA probes.

Compound	Ha-Ras activation measured by increase in GTP content, agent alone (Ha-Ras)	time course of Ha-Ras response (Ha-Ras; soluble anti-CD3)	-73Col-LUC luciferase activity, two costimuli together [1]	effect on induction of -73Col-LUC ([1]; CsA 100 ng/ml with TPA+A23187, 9 hours)	JNK activity, effect of A23187 or CsA treatment (JNK)	effect on jun-B induction by TPA (jun-B)	Ha-Ras activation by anti-CD3 or TPA, costimulation with anti-CD28 or A23187, respectively (Ha-Ras)	-73Col-LUC luciferase activity, agent administered alone [1]	persistence of Ha-Ras activation (Ha-Ras; TPA)	JNK activity, TPA alone (JNK; CV1 and FR3T3 cells, TPA 50 ng/ml, 15 minutes)	jun-B expression, agent alone (jun-B; TPA 50 ng/ml)
anti-CD3: anti-CD3 monoclonal antibody OKT3	activation of Ha-Ras	highly transient	synergistic activation	–	–	–	–	–	–	–	–
cyclosporin A [CsA]	–	–	–	inhibited	In none of these cells was JNK activity affected	not affected	–	–	–	–	–
CNc1ccc2oc(C[C@H]3O[C@@]4(CC[C@H]3C)O[C@H]([C@H](C)C(=O)c3ccc[nH]3)[C@H](C)C[C@H]4C)nc2c1C(=O)O [A23187]	–	–	synergistic activation	–	In none of these cells was JNK activity affected	not affected	not augmented	marginal effects	–	–	–
CCCCCCCCCCCCCC(=O)O[C@@H]1[C@@H](C)[C@@]2(O)[C@@H](C=C(CO)C[C@]3(O)C(=O)C(C)=C[C@@H]23)[C@H]2C(C)(C)[C@]12OC(C)=O [TPA]	activation of Ha-Ras	–	synergistic activation	–	–	–	–	marginal effects	at least 20 minutes	weakly stimulated	induced
